Reference: ChEMBL document CHEMBL3046816, “Development of a Novel Insecticide, Dinotefuran” (J Pestic Sci, 2005)
Converted amounts (≈) assume the structure as drawn.

What was measured:
[1] = Acute toxicity in Anas platyrhynchos (mallard duck) dosed with diet; settings: in vivo, po
[2] = Toxicity in male po dosed Mus musculus (mouse); settings: in vivo
[3] = Solubility in water at pH 7; settings: buffer
[4] = Octanol-water partition coefficient, log Pow of the compound
[5] = Toxicity in female po dosed Mus musculus (mouse); settings: in vivo

CN/C(=N/CC1CCOC1)N[N+](=O)[O-] (stereo not given) [DINOTEFURAN]
LD50 [1]: > 1300 mg/kg | LD50 [2]: 2450 mg/kg | solubility [3]: 40 mg/mL (≈ 198 mM) | logP [4]: -0.549 | LD50 [5]: 2280 mg/kg
